Literature values in patent publication US20090221604A1, “Thiazole Compounds and Their Use as PGD2 Antagonists” (priority 2005, published 2009).

Assays:
[1] = system: asthma model in the guinea pig
[2] = system: allergic conjunctivitis model
guinea pig = settings: after oral dosing

CC1(C)[C@H]2C[C@H](C/C=C\CCCC(=O)O)[C@@H](NC(=O)c3csc4ccc(O)cc34)[C@@H]1C2 [Example S-5751]
antigen-induced eosinophil infiltration into the lung [1]: alleviated
allergen-induced plasma exudation in the conjunctiva [2]: alleviated
early (sneezing, mucosal plasma exudation, nasal blockage) and late (eosinophil infiltration) phase nasal responses (guinea pig): inhibited
